The values below come from publication PMC6270661, “Antileishmanial Lead Structures from Nature: Analysis of Structure-Activity Relationships of a Compound Library Derived from Caffeic Acid Bornyl Ester” (Molecules, 2014).

A word on the pIC50: it is the IC50 on a negative log10 scale, so that one unit is a factor of ten. A higher pIC50 goes with a small IC50. The term melting point denotes the temperature, or range, at which the solid turns liquid.

Data set [1] concerns L. donovani promastigotes. Put plainly: Quantitative colorimetric assay against L. donovani promastigotes. The settings on record: mean of two independent experiments. Format: cell-based. As for the experimental part:
(§1) Antileishmanial activities of the synthesized compounds were evaluated in L. major promastigotes as described before and in L. donovani promastigotes according to Hazra et al.. […] The antiprotozoal activities are presented in Table 1, Table 2 and Table 3 as inhibitory concentrations (IC50). […] Materials and methods for the biological assays have been described before by the authors. […] The protocol for the L. donovani quantitative colorimetric assay is outlined by Hazra et al.. The IC50 values are presented as mean values of two independent experiments against the parasite and macrophages.

For data set [2], the system named is L. major promastigotes. The experiment in a line: AlamarBlue assay, antileishmanial activity against L. major promastigotes. It counts as cell-based, Leishmania major. Conditions: for pIC50: mean of two independent experiments; for Selectivity index SI: SI = IC50 for J774.1/IC50 for L. major (promastigotes). As for the experimental part:
as §1
Background: Alamar Blue is a resazurin reagent that responds to reducing activity.

Data set [3] can be described thus: AlamarBlue cytotoxicity assay on J774.1 macrophages. Conditions: mouse, J774.1 macrophage cell line, mean of two independent experiments. Format: cell-based, murine.
Data set [4] concerns L. major amastigotes. The experiment in a line: L. major amastigote assay. The settings on record: for pIC50: Leishmania major; for Selectivity index SI: SI = IC50 for BMDM/IC50 for L. major (amastigotes). Format: cell-based, Leishmania major.
The nature of data set [5]: Cytotoxicity against bone marrow derived macrophages (BMDM). It counts as cell-based, murine. Conditions: mouse. An excerpt:
The amastigote is the intracellular pathogenic form of the parasite in the vertebrate host and therefore the important target. […] With regard to antileishmanial activity cinnamic acid menthyl (20) and […] (19) show good activities combined with low cytotoxicity. […] Materials and methods for the biological assays have been described before by the authors. […] The protocol for the L. donovani quantitative colorimetric assay is outlined by Hazra et al.. The IC50 values are presented as mean values of two independent experiments against the parasite and macrophages.

Data set [6] relates to J774.1 murine cell line. Put plainly: AlamarBlue cytotoxicity assay on J774.1 macrophages. It counts as cell-based.
The subject of data set [7] is cysteine-cathepsin (L. major promastigote full-lysate). The experiment in a line: Cysteine-cathepsin fluorescence activity assay with L. major promastigote full-lysate. It counts as biochemical, Leishmania major. Conditions: preliminary experiments, result in words.

pIC50: −log10 of the molar value.

As for `CC1(C)C2CCC1(C)C(OC(=O)C=Cc1ccc(O)c(O)c1)C2` (centres unmarked) [Compound 7, Caffeic Acid Isobornyl Ester], the pIC50 in data set [1] (Leishmania donovani) was 4.46; in data set [2] (Leishmania major), 4.34; in data set [3], 5.06; in data set [4], 4.33; in data set [5], 4.96. Moreover, the “Selectivity index SI” value in data set [4] is on record as 0.2.
`CC(C)=CCC/C(C)=C/COC(=O)/C=C/c1ccccc1` [Compound 26, Cinnamic Acid Geranyl Ester]: the values for the pIC50 in data set [1] (Leishmania donovani), in data set [2] (Leishmania major) and in data set [3] were 4.38, under 4.00 and under 4.00, respectively.
`CCCCCCCCCCCCCCCCOP(=O)([O-])OCC[N+](C)(C)C` [miltefosine, reference compound]: the negative logarithm of the IC50 (pIC50) was 4.44 in data set [2] (Leishmania major), 4.25 in data set [3], 4.48 in data set [4] and 4.18 in data set [5]. In addition, the “Selectivity index SI” value in data set [4] stood at 2.0.
As for `O=C(/C=C/c1ccccc1)OC1CCCCC1` [Compound 23, Cinnamic Acid Cyclohexyl Ester], the pIC50 in data set [1] (Leishmania donovani) was 4.63; in data set [2] (Leishmania major) it was under 4.00; in data set [3], under 4.00.
The compound `CC1(C)C2CCC1(C)C(OC(=O)C=Cc1ccc(Cl)cc1)C2` (stereo not drawn) [Compound 3, 4-Chlorocinnamic Acid (−)-bornyl Ester] showed a melting point of 80 to 83 °C. In addition, in data set [1] (Leishmania donovani), the pIC50 was under 4.00. This compound also gave a pIC50 in data set [2] (Leishmania major) of 4.15. In data set [3], this compound showed a pIC50 of 4.31.
On to `CC1(C)C2CCC1(C)[C@H](OC(=O)/C=C/c1cccc(Cl)c1Cl)C2` (stereo partly drawn) [Compound 14, 2,3-Dichlorocinnamic acid (−)-bornyl ester], for which the melting point lay in the range of 86 to 87 °C. The compound further showed a pIC50 in data set [1] (Leishmania donovani) of under 4.00. Besides, the pIC50 in data set [2] (Leishmania major) is 4.18. In data set [3], this compound gave a pIC50 of 4.23.
Turning to `N=C(N)c1ccc(OCCCCCOc2ccc(C(=N)N)cc2)cc1` [pentamidine, reference compound], the pIC50 in data set [2] (Leishmania major) is 4.09; in data set [3], 4.41.
Consider `CC1(C)C2CCC1(C)[C@@H](OC(=O)/C=C/c1ccccc1)C2` (some centres unmarked) [Compound 18, Cinnamic Acid Isobornyl Ester], for which the negative logarithm of the IC50 (pIC50) is 4.29 in data set [1] (Leishmania donovani), 4.19 in data set [2] (Leishmania major) and 4.34 in data set [3].
Taken in the same sequence, the figures for `CC1CCC(C(C)C)C(OC(=O)/C=C/c2ccc(O)c(O)c2)C1` (centres unmarked) [Compound 12, Caffeic Acid Menthyl Ester] were 4.10, 4.23 and 5.71.
For the compound `CC1(C)C2CCC1(C)C(OC(=O)CCc1ccccc1)C2` (centres unmarked) [Compound 27], the pIC50 in data set [2] (Leishmania major) was 4.30; in data set [3], under 4.00. The “Selectivity index SI” value in data set [2] is given as over 2.0. Further, the “cytotoxicity J774.1 (in words)” value in data set [6] (result in words) was “did not show cytotoxicity”.
As for `CC1(C)C2CCC1(C)C(OC(=O)C=Cc1ccc([N+](=O)[O-])cc1)C2` (centres unmarked) [Compound 9, 4-Nitrocinnamic Acid Isobornyl Ester], the melting point is 121 to 123 °C. The same compound gave a pIC50 in data set [1] (Leishmania donovani) of under 4.00. In addition, the pIC50 in data set [2] (Leishmania major) was under 4.00. The compound further gave a pIC50 in data set [3] of under 4.00.
In turn, `CN(C)c1ccc(C=CC(=O)OC2CC3CCC2(C)C3(C)C)cc1` (stereo not drawn) [Compound 5, 4-N-Dimethylaminocinnamic Acid (−)-bornyl Ester] returned a melting point of 114 to 116 °C. Moreover, the pIC50 in data set [1] (Leishmania donovani) is under 4.00. Also, the pIC50 in data set [2] (Leishmania major) was under 4.00. Further, the pIC50 in data set [3] was under 4.00.
As to `CC1CCC(C(C)C)C(OC(=O)/C=C/c2ccccc2)C1` (centres unmarked) [Compound 20, Cinnamic Acid Menthyl Ester], the negative-log IC50 (pIC50) in data set [1] (Leishmania donovani) was 4.10; in data set [2] (Leishmania major), 4.27; in data set [3], 4.35; in data set [4], 4.71; in data set [5], under 3.90. In addition, the “Selectivity index SI” value in data set [4] is recorded as over 6.4.
Consider `Cc1ccc(C(C)C)c(OC(=O)/C=C/c2ccccc2)c1` [Compound 19, Cinnamic Acid Thymyl Ester], for which the pIC50 in data set [1] (Leishmania donovani) was under 4.00; in data set [2] (Leishmania major) it was 4.26; in data set [3], 4.35; in data set [4], 4.31; in data set [5], under 3.83. Further, in data set [4], the “Selectivity index SI” value is recorded as over 3.0.
Take `O=C(/C=C/c1ccccc1)OC12CC3CC(CC(C3)C1)C2` [Compound 21, Cinnamic Acid Adamantyl Ester]: the melting point worked out at 66 °C. The pIC50 in data set [1] (Leishmania donovani) was under 4.00. In data set [2] (Leishmania major), this compound showed a pIC50 of 4.22. The compound further had a negative-log IC50 (pIC50) in data set [3] of 4.33.
Take `COc1ccc(/C=C/C(=O)Oc2cc(C)ccc2C(C)C)cc1O` [Compound 11, Isoferulic Acid Thymyl Ester]: the pIC50 in data set [1] (Leishmania donovani) is 4.10; in data set [2] (Leishmania major), 4.22; in data set [3], 4.34.
In the case of `CC1(C)C2CCC1(C)C(OC(=O)C=Cc1ccccc1)C2` (stereo not drawn) [Compound 15, Cinnamic Acid (−)-Bornyl Ester], the pIC50 in data set [2] (Leishmania major) was 4.40; in data set [3], 4.34; in data set [4], 4.96; in data set [5], 4.27. In addition, the results for the “Selectivity index SI” value in data set [2] and in data set [4] were 1.1 and 5.0, respectively. Further, in data set [7], the protease inhibitory activity entry is “showed protease inhibitory activity”.
Regarding `COc1ccc(/C=C/C(=O)OC2CC3CCC2(C)C3(C)C)cc1O` (stereo not drawn) [Compound 2, Isoferulic Acid (−)-bornyl Ester], the pIC50 in data set [1] was 4.38; in data set [2], 4.19; in data set [6] (mean of two independent experiments) it was 4.31; in data set [4], 4.41; in data set [5], 4.31. The “Selectivity index SI” value in data set [4] is recorded as 1.2.
As to `COc1ccc(/C=C/C(=O)OC2CC(C)CCC2C(C)C)cc1O` (centres unmarked) [Compound 13, Isoferulic Acid Menthyl Ester], the figures for the pIC50 in data set [1] (Leishmania donovani), in data set [2] (Leishmania major) and in data set [3] were under 4.00, 4.27 and 4.35, respectively.
For `CC1(C)C2CCC1(C)C(OC(=O)C=Cc1ccc(OCc3ccccc3)cc1)C2` (centres unmarked) [Compound 6], the melting point is 93 to 95 °C. In data set [1] (Leishmania donovani), this compound showed a pIC50 of under 4.00. The pIC50 in data set [2] (Leishmania major) was under 4.00. Moreover, the pIC50 in data set [3] is under 4.00.
The compound `COc1ccc(/C=C/C(=O)O[C@@H]2CC3CCC2(C)C3(C)C)cc1` (stereo partly drawn) [Compound 16, 4-Methoxycinnamic Acid (−)-Bornyl Ester] came in with a melting point of 87 to 90 °C. Besides, the pIC50 in data set [1] (Leishmania donovani) was under 4.00. In data set [2] (Leishmania major), this compound showed a pIC50 of 4.22. The compound also gave a pIC50 in data set [3] of 4.37.
With `CC(=O)Oc1ccc(/C=C/C(=O)O[C@@H]2CC3CCC2(C)C3(C)C)cc1OC(C)=O` (stereo partly drawn) [Compound 28, 3-(3,4-Bis(acetyloxy))phenyl Propenoic Acid (−)-Bornyl Ester], the figures for the pIC50 in data set [2] (Leishmania major) and in data set [3] were 4.51 and 5.68, respectively.
Regarding `COc1ccc(C=CC(=O)OC2CC3CCC2(C)C3(C)C)cc1O` (centres unmarked) [Compound 8, Isoferulic Acid Isobornyl Ester], the pIC50 was 4.13 in data set [1] (Leishmania donovani), 4.22 in data set [2] (Leishmania major) and 4.35 in data set [3].
With `O=C(/C=C/c1ccccc1)Oc1ccc2ccccc2c1` [Compound 22], the melting point lay in the range of 109 to 110 °C. This compound had a pIC50 in data set [1] (Leishmania donovani) of 4.54. In data set [2] (Leishmania major), this compound gave a negative-log IC50 (pIC50) of 4.17. Moreover, the negative-log IC50 (pIC50) in data set [3] was 4.35.
On to `Cc1ccc(C(C)C)c(OC(=O)/C=C/c2ccc(O)c(O)c2)c1` [Compound 10, Caffeic Acid Thymyl Ester], for which the melting point lay within 115 to 117 °C. Besides, in data set [1] (Leishmania donovani), the pIC50 is 4.38. This compound showed a pIC50 in data set [2] (Leishmania major) of 4.24. The pIC50 in data set [3] was 5.02. Also, in data set [4], the pIC50 is 4.27 and the “Selectivity index SI” value was found to be 0.2. The compound further gave a pIC50 in data set [5] of 5.01.
On to `CC1(C)C2CCC1(C)[C@H](OC(=O)/C=C/c1ccc(Cl)cc1Cl)C2` (stereo partly drawn) [Compound 17, 2,4-Dichlorocinnamic Acid (−)-bornyl Ester], for which the melting point was in the range of 90 to 92 °C. In addition, the pIC50 in data set [1] (Leishmania donovani) was under 4.00. In data set [2] (Leishmania major), this compound had a pIC50 of 4.09. The compound further gave a pIC50 in data set [3] of 4.22.
Regarding `CC(C)=CCCC(C)(OC(=O)C=Cc1ccccc1)C1CC=C(C)CC1` (centres unmarked) [Compound 24, Cinnamic Acid Bisabolyl Ester], the negative logarithm of the IC50 (pIC50) in data set [1] (Leishmania donovani), in data set [2] (Leishmania major) and in data set [3] was under 4.00 each time.
With `C[C@@H]1[C@H](O)[C@@H](C)/C=C/C=C/C=C/C=C/C=C/C=C/C=C/[C@H](O[C@@H]2O[C@H](C)[C@@H](O)[C@H](N)[C@@H]2O)C[C@@H]2O[C@](O)(C[C@@H](O)C[C@@H](O)[C@H](O)CC[C@@H](O)C[C@@H](O)CC(=O)O[C@H]1C)C[C@H](O)[C@H]2C(=O)O` [amphotericin B, reference compound], the pIC50 in data set [1] (Leishmania donovani) was 6.40.
Regarding `C=CCc1ccc(OC(=O)/C=C/c2ccccc2)c(OC)c1` [Compound 25, Cinnamic Acid Eugenyl Ester], the figures for the pIC50 in data set [1] (Leishmania donovani), in data set [2] (Leishmania major) and in data set [3] were 4.10, under 4.00 and 4.49, respectively.
Take `CC1(C)C2CCC1(C)C(OC(=O)C=Cc1ccc(Br)cc1)C2` (stereo not drawn) [Compound 4, 4-Bromocinnamic Acid (−)-bornyl Ester]: the melting point is 71 to 74 °C. In data set [1] (Leishmania donovani), this compound showed a pIC50 of under 4.00. Also, the pIC50 in data set [2] (Leishmania major) is under 4.00. The compound further gave a pIC50 in data set [3] of 4.26.
